# Measurements published in ChEMBL document CHEMBL4610027, “Identification of Mycobacterium tuberculosis CtpF as a target for designing new antituberculous compounds” (Bioorg Med Chem, 2020).
# Test: Inhibition of calcium stimulated Mycobacterium tuberculosis H37Ra CtpF mutant ATPase activity using Na2ATP as substrate preincubated for 30 mins followed by substrate addition and measured after 30 mins by colorimetric analysis
row,Structure (SMILES),IC50
1,NS(=O)(=O)[C@H]1CC=C(CNC(=O)CCCc2c[nH]c3ccccc23)S1,100 µM
2,CCCCC(=O)Nc1cccc(C(=O)NCCCNc2cccnc2)c1,96.9 µM
3,O=C(CCCC[C@@H]1SC[C@@H]2NC(=O)N[C@@H]21)NCc1cn(-c2ccccc2)nc1-c1ccccc1,76.1 µM
4,CCC[C@H](C)NC(=O)CSc1nc2cc(S(=O)(=O)Nc3ccccc3OC)ccc2o1,109 µM
5,CC(=O)C1=C(O)[C@@H]2[C@H]3c4c[nH]c5cccc(c45)C[C@H]3C(C)(C)N2C1=O [CYCLOPIAZONIC ACID],94.5 µM
6,COCC(=O)Nc1c(C(=O)OC)n(CCC(C)C)c2ncc(N[C@@H](C)C(C)(C)O)cc12,38.4 µM
7,C[C@@H](OC(=O)CCCNC1=NS(=O)(=O)c2ccccc21)C(=O)c1c[nH]c2ccccc12,102 µM
